Reference: patent publication US20070287666A1, “Modulator of gamma-secretase” (priority 2006, published 2007)
Residue numbers refer to the chain shown, from its start.

How the values were obtained:
γ-secretase [1] = test: Aβ assay (ELISA, immunoprecipitation-western blotting) of conditioned medium from whole cells; assay type: cell-based, human; conditions: whole cells or cell-free γ-secretase assays; in words
Experimental: Aβ40 and Aβ42 levels were measured by ELISA and immunoprecipitation-western blotting as described previously, with the use of 12-24-h-conditioned medium collected from native HEK-293 cells or from HEK-293 cells stably overexpressing APP (APPswedish or APPwt) (3,24). They were resuspended in Assay Buffer (10 mM KOAc, 1.5 mM MgCl2, protease inhibitors (Roche), 75 mM sodium citrate, pH 6.4) and incubated at 0° C. or 37° C. for 2 or 4 hours (24). CHAPSO-solubilized membrane fractions from above cells were subjected to cell free γ-secretase assay as described below without addition of the C100-Flag substrate. Following adjustment to RIPA buffer, Aβ were captured by immmunoprecipitation with 6E10 antibody (Signet) and immunoblotted as described previously (24). ε-stubs were detected by Western blotting with anti-APP-CT antibody (Sigma).

TMP21 = test: Western blotting of target protein expression after siRNA knockdown; assay type: cell-based, human; conditions: whole cells; in words
Experimental: siRNA-based knockdowns of target proteins were performed as described, in HEK-293 or blastocyst-derived cells (30). The oligonucleotide sequences are available in Supplementary Information.
siRNA-based knockdowns of target proteins were carried out as described (30). […] As negative controls, we used a mixture of four pooled scrambled siRNAs and mock transfections without siRNA. The expression level of target proteins was monitored by Western blotting with polyclonal anti-TMP21 or anti-p24a antibodies. Each of the individual oligonucleotide pairs where independently shown to suppress the relevant target protein (FIG. 8).

ε-secretase = test: Cadherin processing assay; assay type: biochemical; conditions: in words
Experimental: Notch and cadherin cleavage assays were performed as described previously (27, 29).
Cadherin processing assay: Assays were performed as previously described (29). Briefly, cells were resuspended in 0.5 ml/35-mm dish of hypotonic buffer (10 mM MOPS, pH 7.0, 10 mM KCl) and homogenized on ice. A post-nuclear supernatant was prepared by centrifugation at 1000×g for 15 minutes at 4° C. Crude membranes were isolated from the post-nuclear supernatant by centrifugation at 16,000×g for 40 minutes at 4° C. The membranes were then resuspended in 25 μl of assay buffer (150 mM sodium citrate, pH 6.4, 1× Complete protease inhibitor cocktail, Roche), and incubated at 37° C. for 4 hours in the presence or absence of γ-secretase inhibitor (L-685,458, 1 μM). Samples were then analyzed by immunoblotting using C32 anti-N-cadherin and C36 anti-E-cadherin antibodies (BD Transduction Laboratories).

γ-secretase [2] = biological target: T1, γ-secretase (Homo sapiens, UniProt P49768); test: γ-secretase reconstituted in yeast, APPC1-55/Gal4 lacZ reporter assay; assay type: cell-based, S. cerevisiae; parameters: expressed in transfected cells; host or cells: S. cerevisiae (strains PMY1 and DEY1); conditions: co-expression with PS1, NCT, APH-1, PEN-2; wt or V717I APP reporter; in words
Source text: Core γ-secretase enzyme activity of the mammalian CNS was reconstituted in S. cerevisiae by co-expression of human presenilin 1 (PS1), nicastrin (NCT), APH-1 and PEN-2 in accordance with the method described by Edbauer (12), with activity measured via endoproteolytic release of a Gal4 transcriptional activator from an APPC1-55 juxtamembrane region and trans activation of a β-galactosidase reporter gene. While a starting configuration performed slightly above the baseline of cells lacking γ-secretase subunits, non-fermentable carbon sources favoring oxidative metabolism increased output up to 100-fold and allowed profiling of the system. As in mammalian cells, activity was greater with wt PS1 than wt PS2, sensitive to missense mutations of APP substrate near the Aβ42 site, and was modulated by the membrane protein TMP21.
Besides the production of Aβ-related peptide fragments identified by mass spectroscopy, enzyme activity was measured via a transcriptional reporter assay wherein endoproteolysis of a membrane-tethered APPC1-55/Gal4 fusion protein results in the release of a Gal4 transcriptional activator capable of driving a reporter gene (lacZ) with a colorimetric output. Effect of TMP21, Erv25p and Emp24p on reporter activity and PS1 processing

γ-secretase [3] = biological target: T1, γ-secretase; test: Cell-free γ-secretase assay with immunopurified PS1 complexes and C100-Flag substrate; assay type: biochemical; parameters: PS1 complex was isolated by immunoprecipitation from CHAPSO extracted membranes; endogenous in cells; host or cells: HEK-293 (also SHSY-5Y) CHAPSO-solubilized membranes, anti-PS1 (A4) immunoprecipitate; conditions: exogenous protein added to immunopurified TMP21-deficient PS1 complexes; in words
Experimental: Cell-free γ-secretase assays with endogenous APP were performed on microsome membranes from HEK-293 cells stably over expressing APPswedish with or without TMP21 RNAi treatments as described previously (24). ε-stubs were detected by western blotting with anti-APP-CT antibody (Sigma). Cell-free γ-secretase assay was performed as described (7, 13), with exogenous APP-C100 as the substrate was performed with recombinant APP-C100 peptides, wherein PS1 complex was isolated by immunoprecipitation from CHAPSO extracted membranes and combined with the recombinant C100 substrate and the generation of Aβ is determined by ELISA and AICD production is monitored by western blotting. More particularly, the peptides were generated from a prokaryotic expression vector encoding the C-terminal 100 amino acids (596-695) of human APP (695-residue isoform) followed by Flag and His6 sequences (C100-Flag-His6). This was generated by PCR and cloning into pQE60 (Qiagen). […] The generated Aβ was analyzed by immunoblotting or ELISA (Biosource).
Solubilized γ-secretase was prepared as described (7,13). […] Following addition of the C100-Flag substrate (˜0.5 μM) to 50 μl of the solubilized γ-secretase preparation the reaction mixture was incubated for 6 hrs at 37° C. and Aβ products detected by ELISA and Western blotting. […]

Molecule: p24a siRNA: p24a siRNA oligos (SEQ ID NO:12, 13) and p24a pooled oligos, Dharmacon (chain 1 AACCGGATGTCCACCATGACT; chain 2 ACAGAGCCATCAACGACAA; bought from Dharmacon, further chemistry not given here)
- effect on Aβ production (γ-secretase [1]): no effect
- total cellular TMP21 levels / expression (TMP21): decrease

Molecule: CC(C)C[C@H](NC(=O)[C@H](Cc1ccccc1)C[C@@H](O)[C@H](Cc1ccccc1)NC(=O)OC(C)(C)C)C(=O)N[C@@H](Cc1ccccc1)C(N)=O [L685,458]
- ε-cleavage of E-cadherin or N-cadherin substrates (CAD/CTF1) to CAD/CTF2 (ε-secretase): specifically inhibited

B1: TMP21: 219-amino-acid type 1 transmembrane protein, member of the p24 cargo-protein family (accession number Q9D1D4); expressed from cDNA (protein, UniProt Q9D1D4 32-219, looked up)
Transmembrane emp24 …: ISFHLPVNSRKCLREEIHKDLLVTGAYEITDQSGGAGGLRTHLKITDSAGHILYAKEDATKGKFAFTTEDYDMFEVCFESKGTGRIPDQLVILDMKHGVEAKNYEEIAKVEKLKPLEVELRRLEDLSESIVNDFAYMKKREEEMRDTNESTNTRVLYFSIFSMFCLIGLATWQVFYLRRFFKAKKLIE
- effect on Aβ production (γ-secretase [1]): no discernible effect
- lacZ reporter activity (γ-secretase [2]): markedly reduced

B2: TMP21-Flag: TMP21 tagged at the C terminus with the Flag epitope, immunopurified from HEK-293 cells (protein)
chain: B1 Transmembrane emp24 … with V7I, T30S, T41S, A55S
modifications: left off: small tags and cut ends
- Aβ production after complementation of TMP21-deficient PS1 complexes (γ-secretase [3]): reverted to normal
